Test results published in patent US10633419B2, “Immunomodulators” (BRISTOL-MYERS SQUIBB COMPANY, priority 2014, dated 2020).
Starred links: 1 amine or outer side, 2 acyl side, 3 side chain; linkers in the order of their positions; H or OH if unused. Positions of bridges follow the written chain, without caps; N, C: chain ends. Non-standard residues stand in square brackets, D forms with d. Residues, ends and D or L forms follow the SMILES beside them. Groups on a side chain read outwards from the residue. *: point of attachment. X6 = O=C(O)CCCCCCCCCCCCCCCCC(=O)N[C@@H](CCC(=O)NCCCOCCOCCOCCCN*)C(=O)O; X15 = O=C(O)CCCCCCCCCCNC(=O)CCCCCCCCCCNC(=O)CCC(=O)NCCCOCCOCCOCCCN*; Trp(1-CH2COOH) = N[C@@H](Cc1cn(CC(=O)O)c2ccccc12)C(=O)O; X9 = O=C(O)CCCCCCCCCCCCCCCCC(=O)N[C@@H](CCN*)C(=O)O; Phe(3,4,5-F3) = N[C@@H](Cc1cc(F)c(F)c(F)c1)C(=O)O; C18 diacid = O=C(O)CCCCCCCCCCCCCCCCC(=O)*; Phe(4-F) = N[C@@H](Cc1ccc(F)cc1)C(=O)O; γGlu = O=C(O)[C@H](CCC(=O)[*:2])N[*:1]; d(cisHyp) = O=C(O)[C@H]1C[C@@H](O)CN1; βAsp = O=C(O)[C@H](CC(=O)[*:2])N[*:1]; Ethylenediamine = C(CN[*:2])N[*:1]; Hyp = O=C(O)[C@@H]1C[C@@H](O)CN1; NMeF = CN[C@@H](Cc1ccccc1)C(=O)O; Myristoyl = CCCCCCCCCCCCCC(=O)*; dHyp = O=C(O)[C@H]1C[C@H](O)CN1; NMeNle = CCCC[C@H](NC)C(=O)O; Dap(Me) = CNC[C@H](N)C(=O)O; Pip = O=C(O)[C@@H]1CCCCN1; NMeA = CN[C@@H](C)C(=O)O; Pra = C#CC[C@H](N)C(=O)O; Aun = NCCCCCCCCCCC(=O)O; Dab = NCC[C@H](N)C(=O)O; Dap = NC[C@H](N)C(=O)O; Ava = NCCCCC(=O)O

Each molecule was assayed against T1, PD-L1 (Homo sapiens, UniProt Q9NZQ7) (assay: PD-1/PD-L1 Homogenous Time-Resolved Fluorescence (HTRF) binding assay (PD-1-Ig/PD-L1-His)). Details: not given.
T1 construct: hPDL1(19-239)-TVMV-His; made in house; host or cells: HEK293T
Method in brief: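 HTRF competition in dPBS with 0.1% BSA and 0.05% Tween-20: 20 nM PD-1-Ig added after 15 min compound pre-incubation with 10 nM PD-L1-His, then another 15 min. Signal (665/620 nm) after 30 min with APC anti-His (20 nM) and Eu anti-Ig (1 nM).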

T1 sequence (Q9NZQ7 with tags, fused parts or gaps): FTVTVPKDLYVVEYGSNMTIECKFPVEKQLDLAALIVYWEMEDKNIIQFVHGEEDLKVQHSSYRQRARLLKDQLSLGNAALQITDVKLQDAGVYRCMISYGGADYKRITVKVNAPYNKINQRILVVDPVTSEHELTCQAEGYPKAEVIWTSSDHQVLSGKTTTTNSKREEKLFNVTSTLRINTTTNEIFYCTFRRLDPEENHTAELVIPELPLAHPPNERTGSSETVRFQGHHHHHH

SMILES | IC50 [nM]
CCCC[C@H]1C(=O)N(C)[C@@H](CCCC)C(=O)N[C@@H](CCCNC(=N)N)C(=O)N[C@H](C(=O)NCC(=O)N[C@@H](Cc2cn(CCCCCNC(=O)CCC(=O)Oc3c(C)c(C)c4c(c3C)CC[C@@](C)(CCC[C@H](C)CCC[C@H](C)CCCC(C)C)O4)nn2)C(N)=O)CSCC(=O)N[C@@H](Cc2ccc(O)cc2)C(=O)N(C)[C@@H](C)C(=O)N[C@@H](CC(N)=O)C(=O)N2CCC[C@H]2C(=O)N[C@@H](CN)C(=O)N[C@@H](CC(C)C)C(=O)N2C[C@H](O)C[C@H]2C(=O)N[C@@H](Cc2c[nH]c3ccccc23)C(=O)N[C@@H](CO)C(=O)N[C@@H](Cc2csc3ccccc23)C(=O)N1C [Example 14058] | 100 to 1600

Same assay, conditions: inhibition of PD-1-Ig binding to PD-L1-TVMV-His; value given as range class; read-out: HTRF IC50

IC50 [nM] | SMILES
10 to 99 | CCCCCCCCCCCCCCCC(=O)N[C@@H](CCn1cc(C[C@H](NC(=O)CNC(=O)[C@@H]2CSCC(=O)N[C@@H](Cc3ccc(O)cc3)C(=O)N(C)[C@@H](C)C(=O)N[C@@H](CC(=O)O)C(=O)N3CCC[C@H]3C(=O)N[C@@H](Cc3c[nH]cn3)C(=O)N[C@@H](CCCCN)C(=O)N3C[C@H](O)C[C@H]3C(=O)N[C@@H](Cc3c[nH]c4ccccc34)C(=O)N[C@@H](CCCCN)C(=O)N[C@@H](Cc3c[nH]c4ccccc34)C(=O)N(C)[C@@H](CCCC)C(=O)N(C)[C@@H](CCCC)C(=O)N[C@@H](CCC(=O)O)C(=O)N2)C(=O)NCC(N)=O)nn1)C(=O)O [Example 14059]
10 to 99 | CCCC[C@H]1C(=O)N(C)[C@@H](CCCC)C(=O)N[C@@H](CC(C)C)C(=O)N[C@H](C(=O)NCCCOCCOCCOCCCNC(=O)CCC(=O)NCCCCCCCCCCC(=O)NCCCCCCCCCCC(=O)O)CSCC(=O)N[C@@H](Cc2ccc(O)cc2)C(=O)N(C)[C@@H](C)C(=O)N[C@@H](CC(N)=O)C(=O)N2CCC[C@H]2C(=O)N[C@@H](CN)C(=O)N[C@@H](CCC(N)=O)C(=O)N2C[C@H](O)C[C@H]2C(=O)N[C@@H](Cc2c[nH]c3ccccc23)C(=O)N[C@@H](CO)C(=O)N[C@@H](Cc2cn(CC(=O)O)c3ccccc23)C(=O)N1C [Example 11087] ({CH2CO}-Y[NMeA]NP[Dap]Q[Hyp]WS[Trp(1-CH2COOH)][NMeNle][NMeNle]LC-X15; thioether N-14)
10 to 99 | CCCC[C@H]1C(=O)N(C)[C@@H](CCCC)C(=O)N[C@@H](CC(C)C)C(=O)N[C@H](C(=O)NCC(=O)NCC(=O)NCC(=O)NCCCCCCCCCCC(=O)O)CSCC(=O)N[C@@H](Cc2ccc(O)cc2)C(=O)N(C)[C@@H](C)C(=O)N[C@@H](CC(=O)O)C(=O)N2CCC[C@H]2C(=O)N[C@@H](CN)C(=O)N[C@@H](CCC(=O)O)C(=O)N2C[C@H](O)C[C@H]2C(=O)N[C@@H](Cc2c[nH]c3ccccc23)C(=O)N[C@@H](CCN)C(=O)N[C@@H](Cc2cn(CC(=O)O)c3ccccc23)C(=O)N1C [Example 11097] ({CH2CO}-Y[NMeA]DP[Dap]E[Hyp]W[Dab][Trp(1-CH2COOH)][NMeNle][NMeNle]LCGGG[Aun]-OH; thioether N-14)
0.3 to 9.9 | CCCC[C@H]1C(=O)N(C)[C@@H](CCCC)C(=O)N[C@@H](CC(C)C)C(=O)N[C@H](C(=O)NCC(=O)N[C@@H](CC(=O)NCCCCC(=O)NCC[C@H](NC(=O)CCCCCCCCCCCCCCCCC(=O)O)C(=O)O)C(=O)O)CSCC(=O)N[C@@H](Cc2ccc(O)cc2)C(=O)N2CCCC[C@H]2C(=O)N[C@@H](CC(N)=O)C(=O)N2CCC[C@H]2C(=O)N[C@@H](CN)C(=O)N[C@@H](CC(C)C)C(=O)N2C[C@H](O)C[C@H]2C(=O)N[C@@H](Cc2c[nH]c3ccccc23)C(=O)N[C@@H](CCN)C(=O)N[C@@H](Cc2cn(CC(=O)O)c3ccccc23)C(=O)N1C [Example 13164] ({CH2CO}-Y[Pip]NP[Dap]L[Hyp]W[Dab][Trp(1-CH2COOH)][NMeNle][NMeNle]LCG[βAsp][Ava]-X9; thioether N-14)
10 to 99 | CCCC[C@H]1C(=O)N(C)[C@@H](CCCC)C(=O)N[C@@H](CC(C)C)C(=O)N[C@H](C(=O)N[C@@H](CC(=O)O)C(=O)N[C@@H](CCC(=O)NCCCOCCOCCOCCCNC(=O)CC[C@H](NC(=O)CCCCCCCCCCCCCCCCC(=O)O)C(=O)O)C(=O)O)CSCC(=O)N[C@@H](Cc2ccc(O)cc2)C(=O)N(C)[C@@H](C)C(=O)N[C@@H](CC(N)=O)C(=O)N2CCC[C@@H]2C(=O)N[C@@H](CN)C(=O)N[C@@H](CC(C)C)C(=O)N2C[C@@H](O)C[C@@H]2C(=O)N[C@@H](Cc2c[nH]c3ccccc23)C(=O)N[C@@H](CCN)C(=O)N[C@@H](Cc2cn(CC(=O)O)c3ccccc23)C(=O)N1C [Example 11228] ({CH2CO}-Y[NMeA]N[dP][Dap]L[dHyp]W[Dab][Trp(1-CH2COOH)][NMeNle][NMeNle]LCDE(X6)-OH; thioether N-14)
100 to 1600 | CCCCCCCCCCCCCCCCNC(=O)[C@H](CC(=O)O)NC(=O)CCCCCCCCCCNC(=O)[C@@H]1CSCC(=O)N[C@@H](Cc2ccc(O)cc2)C(=O)N(C)[C@@H](C)C(=O)N[C@@H](CC(N)=O)C(=O)N2CCC[C@H]2C(=O)N[C@@H](Cc2cnc[nH]2)C(=O)N[C@@H](CC(C)C)C(=O)N2C[C@H](O)C[C@H]2C(=O)N[C@@H](Cc2c[nH]c3ccccc23)C(=O)N[C@@H](CO)C(=O)N[C@@H](Cc2c[nH]c3ccccc23)C(=O)N(C)[C@@H](CCCC)C(=O)N(C)[C@@H](CCCC)C(=O)N[C@@H](CCCNC(=N)N)C(=O)N1 [Example 11119]

The next lines start with the molecule.

SMILES | IC50 [nM]
C#CC[C@H](NC(=O)CNC(=O)[C@@H]1CSCC(=O)N[C@@H](Cc2ccc(O)cc2)C(=O)N(C)[C@@H](C)C(=O)N[C@@H](CC(=O)O)C(=O)N2CCC[C@H]2C(=O)N[C@@H](Cc2c[nH]cn2)C(=O)N[C@@H](CCCCN)C(=O)N2C[C@H](O)C[C@H]2C(=O)N[C@@H](Cc2c[nH]c3ccccc23)C(=O)N[C@@H](CCCCN)C(=O)N[C@@H](Cc2c[nH]c3ccccc23)C(=O)N(C)[C@@H](CCCC)C(=O)N(C)[C@@H](CCCC)C(=O)N[C@@H](CCC(=O)O)C(=O)N1)C(=O)NCC(N)=O [INT 1400A] ({CH2CO}-Y[NMeA]DPHK[Hyp]WKW[NMeNle][NMeNle]ECG[Pra]G-NH2; thioether N-14) | 0.3 to 9.9
CCCC[C@H]1C(=O)N(C)[C@@H](CCCC)C(=O)N[C@@H](CCCNC(=N)N)C(=O)N[C@H](C(=O)NCCCCCCCCCCC(N)=O)CSCC(=O)N[C@@H](Cc2ccc(O)cc2)C(=O)N(C)[C@@H](C)C(=O)N[C@@H](CC(=O)O)C(=O)N2CCC[C@H]2C(=O)N[C@@H](Cc2cnc[nH]2)C(=O)N[C@@H](CC(C)C)C(=O)N2C[C@H](O)C[C@H]2C(=O)N[C@@H](Cc2c[nH]c3ccccc23)C(=O)N[C@@H](CO)C(=O)N[C@@H](Cc2c[nH]c3ccccc23)C(=O)N1C [Example 11064] ({CH2CO}-Y[NMeA]DPHL[Hyp]WSW[NMeNle][NMeNle]RC[Aun]-NH2; thioether N-14) | 0.3 to 9.9
CCCCCCCCCCCCCC(=O)N[C@@H](CCC(=O)NCCCC[C@H](NC(=O)[C@H](CC(=O)O)NC(=O)CNC(=O)CNC(=O)[C@@H]1CSCC(=O)N[C@@H](Cc2ccc(O)cc2)C(=O)N(C)[C@@H](C)C(=O)N[C@@H](CC(=O)O)C(=O)N2CCC[C@H]2C(=O)N[C@@H](Cc2cnc[nH]2)C(=O)N[C@@H](CC(C)C)C(=O)N2C[C@H](O)C[C@H]2C(=O)N[C@@H](Cc2c[nH]c3ccccc23)C(=O)N[C@@H](CO)C(=O)N[C@@H](Cc2c[nH]c3ccccc23)C(=O)N(C)[C@@H](CCCC)C(=O)N(C)[C@@H](CCCC)C(=O)N[C@@H](CCCNC(=N)N)C(=O)N1)C(N)=O)C(=O)O [Example 11123] ({CH2CO}-Y[NMeA]DPHL[Hyp]WSW[NMeNle][NMeNle]RCGGDK([γGlu-Myristoyl])-NH2; thioether N-14) | 10 to 99
CCCC[C@H]1C(=O)N(C)[C@@H](CCCC)C(=O)N[C@@H](CC(C)C)C(=O)N[C@H](C(=O)NCC(=O)N[C@@H](CCC(=O)NCCNC(=O)CC[C@H](NC(=O)CCCCCCCCCCCCCCCCC(=O)O)C(=O)O)C(=O)O)CSCC(=O)N[C@@H](Cc2ccc(F)cc2)C(=O)N2CCCC[C@H]2C(=O)N[C@@H](CC(=O)O)C(=O)N2CCC[C@H]2C(=O)N[C@@H](CN)C(=O)N[C@@H](CC(C)C)C(=O)N2C[C@H](O)C[C@H]2C(=O)N[C@@H](Cc2c[nH]c3ccccc23)C(=O)N[C@@H](CCN)C(=O)N[C@@H](Cc2cn(CC(=O)O)c3ccccc23)C(=O)N1C [Example 14123] ({CH2CO}-[Phe(4-F)][Pip]DP[Dap]L[Hyp]W[Dab][Trp(1-CH2COOH)][NMeNle][NMeNle]LCGE([Ethylenediamine-γGlu-C18 diacid])-OH; thioether N-14) | 0.3 to 9.9
C#CC[C@H](NC(=O)CNC(=O)[C@@H]1CSCC(=O)N[C@@H](Cc2cc(F)c(F)c(F)c2)C(=O)N(C)[C@@H](Cc2ccccc2)C(=O)N(C)[C@@H](CCCC)C(=O)N2C[C@H](O)C[C@@H]2C(=O)N[C@@H](CC(=O)O)C(=O)N[C@@H](C(C)C)C(=O)N(C)[C@@H](Cc2ccccc2)C(=O)N[C@@H](CC(=O)O)C(=O)N2CCC[C@@H]2C(=O)N[C@@H](Cc2c[nH]c3ccccc23)C(=O)N[C@@H](Cc2ccc(O)cc2)C(=O)N[C@@H](CC(C)C)C(=O)N1)C(N)=O [INT 1400L, ClAc-F3Phe-mPhe-mNle-dHyp-Asp-Val-mPhe-Asp-dPro-Trp-Tyr-Leu-Cys-Gly-[(S)-propargylglycine]] ({CH2CO}-[Phe(3,4,5-F3)][NMeF][NMeNle][d(cisHyp)]DV[NMeF]D[dP]WYLCG[Pra]-NH2; thioether N-13) | 10 to 99
C#CC[C@H](NC(=O)CNC(=O)[C@@H]1CSCC(=O)N[C@@H](Cc2ccc(O)cc2)C(=O)N2CCCC[C@H]2C(=O)N[C@@H](CC(N)=O)C(=O)N2CCC[C@H]2C(=O)N[C@@H](CNC)C(=O)N[C@@H](CC(C)C)C(=O)N2C[C@H](O)C[C@H]2C(=O)N[C@@H](Cc2c[nH]c3ccccc23)C(=O)N[C@@H](CCN)C(=O)N[C@@H](Cc2cn(CC(=O)O)c3ccccc23)C(=O)N(C)[C@@H](CCCC)C(=O)N(C)[C@@H](CCCC)C(=O)N[C@@H](CC(C)C)C(=O)N1)C(=O)O [INT130AK] ({CH2CO}-Y[Pip]NP[Dap(Me)]L[Hyp]W[Dab][Trp(1-CH2COOH)][NMeNle][NMeNle]LCG[Pra]-OH; thioether N-14) | 0.3 to 9.9
